Twelve molecules from PubChem BioAssay (NCI) can be followed below.

Among the test systems are CAKI-1 renal; DU-145 prostate; EKVX NSCLC; HCC-2998 colon; HS 578T breast; NCI-H23 lung; OVCAR-8 ovarian; PC-3 prostate; SN12C renal; SR leukemia.
Experiment in all cases: NCI tumour cell line growth inhibition, 48 h

Each structure is given as a SMILES string.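 Dose response: 5 concentrations. Exposure: 48 h. Format: 96-well plates. Endpoint: linear interpolation; highest concentration if not reached. TGI: concentration producing complete growth inhibition.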

As to `OC(NN=C1CCCC1)(C(F)(F)Cl)C(F)(F)Cl`, the TGI with CAKI-1 renal, with DU-145 prostate, in the experiment on EKVX NSCLC, with HCC-2998 colon, in the experiment with HS 578T breast and with NCI-H23 lung was > 10 µM in each case. The TGI with OVCAR-8 ovarian, in the experiment with PC-3 prostate, in the experiment with SN12C renal and in the experiment on SR leukemia was > 10 µM each time.
With `Cc1ccccc1NC(=O)CC(=O)NNC(Sc1ccccc1)c1cc(N=Nc2ccc(Br)cc2)ccc1O` (stereo not given), the TGI in the experiment on CAKI-1 renal, in the experiment on DU-145 prostate, in the experiment with EKVX NSCLC, with HCC-2998 colon, with HS 578T breast and with NCI-H23 lung was > 10 µM each time. Also, the TGI with OVCAR-8 ovarian is 2.12 µM; in the experiment on PC-3 prostate it was > 10 µM; with SN12C renal, > 10 µM; in the experiment on SR leukemia, 4.07 µM.
In the case of `O=C1NC(N2CCOCC2)=N/C1=C\c1ccc(O)cc1`, the TGI in the experiment on CAKI-1 renal, in the experiment with DU-145 prostate, in the experiment with EKVX NSCLC, in the experiment on HCC-2998 colon, with HS 578T breast and with NCI-H23 lung was > 100 µM each time. The TGI in the experiment on OVCAR-8 ovarian, in the experiment with PC-3 prostate, with SN12C renal and with SR leukemia was > 100 µM throughout.
As to `C#CCOC(=O)c1ccc(OC(C)=O)cc1`, the TGI with CAKI-1 renal, with DU-145 prostate, with EKVX NSCLC, in the experiment with HCC-2998 colon, with HS 578T breast and in the experiment on NCI-H23 lung was > 100 µM throughout. In addition, the TGI in the experiment on OVCAR-8 ovarian, with PC-3 prostate, with SN12C renal and in the experiment on SR leukemia was > 100 µM throughout.
On to `CC1(C)C=C(/C=N/Nc2ccccc2)C(C#N)=C(O)C1(C#N)C#N`, for which the TGI with CAKI-1 renal, with DU-145 prostate, with EKVX NSCLC, with HCC-2998 colon, with HS 578T breast and in the experiment on NCI-H23 lung was > 100 µM each time. In addition, the TGI in the experiment on OVCAR-8 ovarian, in the experiment with PC-3 prostate, in the experiment with SN12C renal and in the experiment on SR leukemia was > 100 µM in each case.
In the case of `CCOC1=C(c2ccccc2)N2CCCCC2O1` (stereo not given), the TGI with CAKI-1 renal is > 84.2 µM; in the experiment on DU-145 prostate it was > 86.8 µM; in the experiment with EKVX NSCLC, > 100 µM; in the experiment on HCC-2998 colon, 12.8 µM; in the experiment with HS 578T breast, 33.1 µM; in the experiment on NCI-H23 lung, > 36.4 µM. Moreover, the TGI was > 38.5 µM in the experiment on OVCAR-8 ovarian, 22.3 µM in the experiment on PC-3 prostate, > 41.9 µM with SN12C renal and > 31.6 µM in the experiment on SR leukemia.
`Cc1cc(-c2nc3cccc(O)c3s2)ccc1N`: the TGI in the experiment on CAKI-1 renal is 71.4 µM; in the experiment on DU-145 prostate it was > 100 µM; in the experiment with EKVX NSCLC it was > 100 µM; with HCC-2998 colon, > 100 µM; in the experiment on HS 578T breast it was 46.4 µM; in the experiment on NCI-H23 lung, 93 µM. Besides, the TGI is 99 µM in the experiment on OVCAR-8 ovarian, 98.5 µM with PC-3 prostate, > 100 µM with SN12C renal and > 100 µM with SR leukemia.
With `CC(C)=CCC[C@@H](C)C1=C(O)C(Nc2ccccc2I)=C(C)C(=O)C1=O`, the TGI in the experiment on CAKI-1 renal was 41.3 µM; in the experiment on DU-145 prostate it was 69.2 µM; in the experiment with EKVX NSCLC, > 75 µM; in the experiment with HCC-2998 colon, 56.7 µM; in the experiment on HS 578T breast, 47.4 µM; in the experiment with NCI-H23 lung, 38.9 µM. In addition, the TGI with OVCAR-8 ovarian was > 32.2 µM; in the experiment on PC-3 prostate, > 51.8 µM; in the experiment on SN12C renal it was > 75 µM; with SR leukemia, 21.4 µM.
Regarding `CCOC(=O)c1cc(Br)c(-c2onc(C)c2Br)[nH]1`, the TGI in the experiment on CAKI-1 renal, in the experiment on DU-145 prostate, with EKVX NSCLC, in the experiment with HCC-2998 colon, with HS 578T breast and in the experiment on NCI-H23 lung was > 100 µM each time. For the same molecule, the TGI in the experiment with OVCAR-8 ovarian is 82.6 µM; in the experiment with PC-3 prostate, > 100 µM; in the experiment with SN12C renal, > 100 µM; with SR leukemia, > 100 µM.
With `COc1cccc(C2c3cc4c(cc3OC(Nc3ccccc3)C2C)OCO4)c1O` (stereo not given), the TGI was 49.1 µM in the experiment on CAKI-1 renal; > 53.9 µM in the experiment on DU-145 prostate; > 55.9 µM in the experiment with EKVX NSCLC; 36.3 µM in the experiment with HCC-2998 colon; > 62.6 µM with HS 578T breast; 45.2 µM in the experiment on NCI-H23 lung. Besides, the TGI with OVCAR-8 ovarian was 35.7 µM; in the experiment with PC-3 prostate, 36.9 µM; in the experiment on SN12C renal it was 27.8 µM; in the experiment on SR leukemia it was 7.25 µM.
With `CCN(CC)C(=O)CCN1CC1`, the TGI in the experiment with CAKI-1 renal, in the experiment with DU-145 prostate, with EKVX NSCLC, with HCC-2998 colon, in the experiment with HS 578T breast and with NCI-H23 lung was > 10 µM throughout. Moreover, the TGI with OVCAR-8 ovarian, in the experiment on PC-3 prostate, in the experiment with SN12C renal and with SR leukemia was > 10 µM throughout.
On to `O=C(O)c1cccc(NC(C(=O)c2ccccc2)c2ccccc2)c1` (stereo not given), for which the TGI is > 100 µM in the experiment on CAKI-1 renal; > 100 µM in the experiment on DU-145 prostate; > 100 µM in the experiment on EKVX NSCLC; > 100 µM in the experiment on HCC-2998 colon; 80.6 µM in the experiment with HS 578T breast; > 100 µM in the experiment on NCI-H23 lung. Also, the TGI in the experiment with OVCAR-8 ovarian, in the experiment on PC-3 prostate, with SN12C renal and in the experiment on SR leukemia was > 100 µM in each case.
